ChEMBL document CHEMBL5724806, “Unraveling interindividual differences and functional consequences of gut microbial metabolism of immunosuppressants” (2024)

What was measured:
Type in all cases: ADME
[1] = (§1) The drug is tested on the gut metagenome community of A-06 with ENA study accession number: PRJEB31790 for biotransformation under anaerobic condition. The drug concentrations were measured over 7 timepoints collected between 0 and 12 hours of incubation by liquid-chromatography-coupled mass spectrometry (LC–MS); design: dose 5 uM, timepoint 0, 0.75, 1.5, 3, 6, 9, 12 hours; settings: 5 µM
[2] = as §1, with “T-04” for “A-06”; design: dose 5 uM, timepoint 0, 0.75, 1.5, 3, 6, 9, 12 hours; settings: 5 µM
[3] = The drug is tested on Gemella haemolysans strain: DSM107751 for biotransformation under microaerobic condition. The drug concentrations were measured over 6 timepoints collected between 0 and 12 hours of incubation by liquid-chromatography-coupled mass spectrometry (LC–MS); design: dose 5 uM, timepoint 0, 1.5, 3, 6, 9, 12 hours; settings: 5 µM
[4] = as §1, with “A-02” for “A-06”; design: dose 5 uM, timepoint 0, 0.75, 1.5, 3, 6, 9, 12 hours; settings: 5 µM
[5] = as §1, with “P-02” for “A-06”; design: dose 5 uM, timepoint 0, 0.75, 1.5, 3, 6, 9, 12 hours; settings: 5 µM
[6] = as §1, with “A-08” for “A-06”; design: dose 5 uM, timepoint 0, 0.75, 1.5, 3, 6, 9, 12 hours; settings: 5 µM
[7] = The drug is tested on Eubacterium rectale strain: DSM17629 for biotransformation under anaerobic condition. The drug concentrations were measured over 6 timepoints collected between 0 and 12 hours of incubation by liquid-chromatography-coupled mass spectrometry (LC–MS); design: dose 5 uM, timepoint 0, 1.5, 3, 6, 9, 12 hours; settings: agathobacter rectalis, 5 µM
[8] = The drug is tested on Clostridium scindens strain: DSM5676 for biotransformation under anaerobic condition. The drug concentrations were measured over 6 timepoints collected between 0 and 12 hours of incubation by liquid-chromatography-coupled mass spectrometry (LC–MS); design: dose 5 uM, timepoint 0, 1.5, 3, 6, 9, 12 hours; settings: 5 µM
[9] = as §1, with “T-05” for “A-06”, “microaerobic” for “anaerobic”; design: dose 5 uM, timepoint 0, 0.75, 1.5, 3, 6, 9, 12 hours; settings: 5 µM
[10] = The drug is tested on Lactobacillus fermentum strain: DSM20052 for biotransformation under anaerobic condition. The drug concentrations were measured over 6 timepoints collected between 0 and 12 hours of incubation by liquid-chromatography-coupled mass spectrometry (LC–MS); design: dose 5 uM, timepoint 0, 1.5, 3, 6, 9, 12 hours; settings: limosilactobacillus fermentum, 5 µM
[11] = as §1, with “A-02” for “A-06”, “microaerobic” for “anaerobic”; design: dose 5 uM, timepoint 0, 0.75, 1.5, 3, 6, 9, 12 hours; settings: 5 µM
[12] = The drug is tested on Lactobacillus gasseri strain: DSM20243 for biotransformation under anaerobic condition. The drug concentrations were measured over 6 timepoints collected between 0 and 12 hours of incubation by liquid-chromatography-coupled mass spectrometry (LC–MS); design: dose 5 uM, timepoint 0, 1.5, 3, 6, 9, 12 hours; settings: 5 µM
[13] = The drug is tested on Bacteroides uniformis strain: DSM6597 for biotransformation under anaerobic condition. The drug concentrations were measured over 6 timepoints collected between 0 and 12 hours of incubation by liquid-chromatography-coupled mass spectrometry (LC–MS); design: dose 5 uM, timepoint 0, 1.5, 3, 6, 9, 12 hours; settings: 5 µM
[14] = as §1, with “P-02” for “A-06”, “microaerobic” for “anaerobic”; design: dose 5 uM, timepoint 0, 0.75, 1.5, 3, 6, 9, 12 hours; settings: 5 µM
[15] = The drug is tested on Collinsella aerofaciens strain: DSM3979 for biotransformation under anaerobic condition. The drug concentrations were measured over 6 timepoints collected between 0 and 12 hours of incubation by liquid-chromatography-coupled mass spectrometry (LC–MS); design: dose 5 uM, timepoint 0, 1.5, 3, 6, 9, 12 hours; settings: 5 µM
[16] = The drug is tested on Blautia hansenii strain: DSM20583 for biotransformation under anaerobic condition. The drug concentrations were measured over 6 timepoints collected between 0 and 12 hours of incubation by liquid-chromatography-coupled mass spectrometry (LC–MS); design: dose 5 uM, timepoint 0, 1.5, 3, 6, 9, 12 hours; settings: 5 µM
[17] = The drug is tested on Bacteroides fragilis strain: DSM2151 for biotransformation under anaerobic condition. The drug concentrations were measured over 6 timepoints collected between 0 and 12 hours of incubation by liquid-chromatography-coupled mass spectrometry (LC–MS); design: dose 5 uM, timepoint 0, 1.5, 3, 6, 9, 12 hours; settings: 5 µM
[18] = as §1, with “T-05” for “A-06”; design: dose 5 uM, timepoint 0, 0.75, 1.5, 3, 6, 9, 12 hours; settings: 5 µM
[19] = as §1, with “T-04” for “A-06”, “microaerobic” for “anaerobic”; design: dose 5 uM, timepoint 0, 0.75, 1.5, 3, 6, 9, 12 hours; settings: 5 µM
[20] = The drug is tested on Actinomyces graevenitzii strain: DSM15540 for biotransformation under microaerobic condition. The drug concentrations were measured over 6 timepoints collected between 0 and 12 hours of incubation by liquid-chromatography-coupled mass spectrometry (LC–MS); design: dose 5 uM, timepoint 0, 1.5, 3, 6, 9, 12 hours; settings: 5 µM
[21] = as §1, with “P-03” for “A-06”; design: dose 5 uM, timepoint 0, 0.75, 1.5, 3, 6, 9, 12 hours; settings: 5 µM
[22] = as §1, with “A-09” for “A-06”, “microaerobic” for “anaerobic”; design: dose 5 uM, timepoint 0, 0.75, 1.5, 3, 6, 9, 12 hours; settings: 5 µM
[23] = The drug is tested on Lactobacillus paracasei strain: ATCC27092 for biotransformation under microaerobic condition. The drug concentrations were measured over 6 timepoints collected between 0 and 12 hours of incubation by liquid-chromatography-coupled mass spectrometry (LC–MS); design: dose 5 uM, timepoint 0, 1.5, 3, 6, 9, 12 hours; settings: lacticaseibacillus paracasei, 5 µM
[24] = The drug is tested on Lactobacillus paracasei strain: ATCC27092 for biotransformation under anaerobic condition. The drug concentrations were measured over 6 timepoints collected between 0 and 12 hours of incubation by liquid-chromatography-coupled mass spectrometry (LC–MS); design: dose 5 uM, timepoint 0, 1.5, 3, 6, 9, 12 hours; settings: lacticaseibacillus paracasei, 5 µM
[25] = The drug is tested on Bacteroides vulgatus strain: DSM1447 for biotransformation under anaerobic condition. The drug concentrations were measured over 6 timepoints collected between 0 and 12 hours of incubation by liquid-chromatography-coupled mass spectrometry (LC–MS); design: dose 5 uM, timepoint 0, 1.5, 3, 6, 9, 12 hours; settings: phocaeicola vulgatus, 5 µM
[26] = The drug is tested on Dorea formicigenerans strain: DSM3992 for biotransformation under anaerobic condition. The drug concentrations were measured over 6 timepoints collected between 0 and 12 hours of incubation by liquid-chromatography-coupled mass spectrometry (LC–MS); design: dose 5 uM, timepoint 0, 1.5, 3, 6, 9, 12 hours; settings: 5 µM
[27] = as §1, with “A-03” for “A-06”, “microaerobic” for “anaerobic”; design: dose 5 uM, timepoint 0, 0.75, 1.5, 3, 6, 9, 12 hours; settings: 5 µM
[28] = The drug is tested on Streptococcus sanguinis strain: DSM20567 for biotransformation under anaerobic condition. The drug concentrations were measured over 6 timepoints collected between 0 and 12 hours of incubation by liquid-chromatography-coupled mass spectrometry (LC–MS); design: dose 5 uM, timepoint 0, 1.5, 3, 6, 9, 12 hours; settings: 5 µM
[29] = The drug is tested on Bifidobacterium longum strain: DSM20088 for biotransformation under anaerobic condition. The drug concentrations were measured over 6 timepoints collected between 0 and 12 hours of incubation by liquid-chromatography-coupled mass spectrometry (LC–MS); design: dose 5 uM, timepoint 0, 1.5, 3, 6, 9, 12 hours; settings: 5 µM
[30] = The drug is tested on Bacteroides caccae strain: DSM19024 for biotransformation under anaerobic condition. The drug concentrations were measured over 6 timepoints collected between 0 and 12 hours of incubation by liquid-chromatography-coupled mass spectrometry (LC–MS); design: dose 5 uM, timepoint 0, 1.5, 3, 6, 9, 12 hours; settings: 5 µM

Bacterial Biotransformation [1]	Bacterial Biotransformation [2]	Bacterial Biotransformation [4]	Bacterial Biotransformation [5]	Bacterial Biotransformation [6]	Bacterial Biotransformation [7]	Bacterial Biotransformation [9]	Bacterial Biotransformation [10]	Bacterial Biotransformation [11]	Bacterial Biotransformation [12]	Bacterial Biotransformation [13]	Bacterial Biotransformation [14]	Bacterial Biotransformation [15]	Bacterial Biotransformation [16]	Bacterial Biotransformation [17]	Bacterial Biotransformation [18]	Bacterial Biotransformation [19]	Bacterial Biotransformation [20]	Bacterial Biotransformation [21]	Structure (SMILES)	Bacterial Biotransformation [3]	other results
Compound NOT metabolized	Compound NOT metabolized	Compound NOT metabolized	Compound NOT metabolized	Compound NOT metabolized	Compound NOT metabolized	Compound NOT metabolized	Compound metabolized	Compound NOT metabolized	Compound NOT metabolized	Compound NOT metabolized	Compound NOT metabolized	Compound NOT metabolized	Compound NOT metabolized	Compound NOT metabolized	Compound NOT metabolized	Compound NOT metabolized	Compound NOT metabolized	Compound NOT metabolized	CCOC(=O)[C@H](CCc1ccccc1)N[C@@H](C)C(=O)N1[C@H](C(=O)O)C[C@@H]2CCC[C@@H]21	Compound NOT metabolized	Bacterial Biotransformation [8]: Compound NOT metabolized; Bacterial Biotransformation [22]: Compound NOT metabolized; Bacterial Biotransformation [23]: Compound NOT metabolized; Bacterial Biotransformation [24]: Compound NOT metabolized; Bacterial Biotransformation [25]: Compound NOT metabolized; Bacterial Biotransformation [26]: Compound NOT metabolized; Bacterial Biotransformation [27]: Compound NOT metabolized; Bacterial Biotransformation [28]: Compound NOT metabolized; Bacterial Biotransformation [29]: Compound NOT metabolized; Bacterial Biotransformation [30]: Compound NOT metabolized
Compound metabolized	Compound NOT metabolized	Compound metabolized	Compound NOT metabolized	Compound metabolized	Compound metabolized	Compound NOT metabolized	Compound metabolized	Compound metabolized	Compound NOT metabolized	Compound metabolized	Compound NOT metabolized	Compound metabolized	Compound NOT metabolized	Compound metabolized	Compound metabolized	Compound NOT metabolized	Compound metabolized	Compound NOT metabolized	Cn1cnc([N+](=O)[O-])c1Sc1ncnc2nc[nH]c12 [AZATHIOPRINE]	Compound NOT metabolized	Bacterial Biotransformation [8]: Compound metabolized; Bacterial Biotransformation [22]: Compound metabolized; Bacterial Biotransformation [23]: Compound NOT metabolized; Bacterial Biotransformation [24]: Compound metabolized; Bacterial Biotransformation [25]: Compound metabolized; Bacterial Biotransformation [26]: Compound metabolized; Bacterial Biotransformation [27]: Compound metabolized; Bacterial Biotransformation [28]: Compound metabolized; Bacterial Biotransformation [29]: Compound metabolized; Bacterial Biotransformation [30]: Compound metabolized

Structure (SMILES)	Bacterial Biotransformation [1]	Bacterial Biotransformation [2]	Bacterial Biotransformation [4]	Bacterial Biotransformation [5]	Bacterial Biotransformation [6]	Bacterial Biotransformation [7]	Bacterial Biotransformation [9]	Bacterial Biotransformation [10]	Bacterial Biotransformation [11]	Bacterial Biotransformation [12]	Bacterial Biotransformation [13]	Bacterial Biotransformation [14]	Bacterial Biotransformation [15]	Bacterial Biotransformation [16]	Bacterial Biotransformation [17]	Bacterial Biotransformation [18]	Bacterial Biotransformation [19]	Bacterial Biotransformation [20]	Bacterial Biotransformation [21]	Bacterial Biotransformation [3]	other results
CCOC(=O)C1=C(COCCN)NC(C)=C(C(=O)OC)C1c1ccccc1Cl (centres undefined) [AMLODIPINE]	Compound NOT metabolized	Compound NOT metabolized	Compound metabolized	Compound NOT metabolized	Compound NOT metabolized	Compound NOT metabolized	Compound NOT metabolized	Compound NOT metabolized	Compound metabolized	Compound NOT metabolized	Compound NOT metabolized	Compound NOT metabolized	Compound NOT metabolized	Compound NOT metabolized	Compound NOT metabolized	Compound NOT metabolized	Compound NOT metabolized	Compound NOT metabolized	Compound NOT metabolized	Compound NOT metabolized	Bacterial Biotransformation [22]: Compound NOT metabolized; Bacterial Biotransformation [23]: Compound NOT metabolized; Bacterial Biotransformation [24]: Compound NOT metabolized; Bacterial Biotransformation [25]: Compound NOT metabolized; Bacterial Biotransformation [26]: Compound NOT metabolized; Bacterial Biotransformation [27]: Compound NOT metabolized; Bacterial Biotransformation [28]: Compound NOT metabolized; Bacterial Biotransformation [29]: Compound NOT metabolized; Bacterial Biotransformation [30]: Compound NOT metabolized
